# Reference: article PMC7156458, “Synthetic biology based construction of biological activity-related library of fungal decalin-containing diterpenoid pyrones” (Nature Communications, 2020)
# What was measured:
# Experiment in all cases: cells
# Set-up in all cases: JFCR39 human cancer cell line panel, antiproliferative dose response (optical density), GI50
# SNB-75 = settings: Homo sapiens, SNB-75
# Method: (§1) Initially, we evaluated new DDP analogues for their antiproliferative activities across the panel of 39 human cancer cell lines, JFCR39[50],[51]. […] Purified DDPs was dissolved in DMSO (Specially Prepared Reagent, Nuclease and Protease tested, NACALAI, 09659-14) to prepare 5 mM solutions. The Each DDP solution (5 mM) was used for antiproliferative effects on cancer cell lines (Supplementary Notes 23, 24, 25, 26), biological activity against Drosophila (Supplementary Note 27), anti-HIV assay (Supplementary Note 28) and screening of amyloid Ab42 aggregation inhibitors (Supplementary Notes 29).
# BSY-1 = settings: BSY-1
# Method: as §1
# SF-268 = settings: Homo sapiens, SF-268
# Method: as §1
# PC-3 = settings: Homo sapiens, PC-3
# Method: as §1
# HCC2998 = settings: Homo sapiens, HCC 2998
# Method: as §1
# SF-295 = settings: Homo sapiens, SF-295
# Method: as §1
# RXF-631L = settings: RXF-631L
# Method: as §1
# KM-12 = settings: Homo sapiens, KM12
# Method: as §1
# SK-OV-3 = settings: Homo sapiens, SK-OV-3
# Method: as §1
# HT-29 = settings: Homo sapiens, HT-29
# Method: as §1
# DU-145 = settings: Homo sapiens, DU-145
# Method: as §1
# MKN-A = system: MKN-A
# Method: as §1
# MKN1 = settings: Homo sapiens, MKN-1
# Method: as §1
# LOX-IMVI = settings: Homo sapiens, LOX IMVI
# Method: as §1
# OVCAR-4 = settings: Homo sapiens, OVCAR-4
# Method: as §1
# SF-539 = settings: Homo sapiens, SF-539
# Method: as §1
# A549 = settings: Homo sapiens, A549
# Method: as §1
# DMS114 = settings: Homo sapiens, DMS-114
# Method: as §1
# OVCAR-3 = settings: Homo sapiens, OVCAR-3
# Method: as §1
# MCF-7 = settings: Homo sapiens, MCF7
# Method: as §1
# MKN74 = settings: Homo sapiens, MKN-74
# Method: as §1
# St-4 = settings: Homo sapiens, St-4
# Method: as §1
# NCI-H23 = settings: Homo sapiens, NCI-H23
# Method: as §1
# OVCAR-5 = settings: Homo sapiens, OVCAR-5
# Method: as §1
# ACHN = settings: Homo sapiens, ACHN
# Method: as §1
# MKN45 = settings: Homo sapiens, MKN-45
# Method: as §1
# DMS273 = settings: Homo sapiens, DMS-273
# Method: as §1
structure (smiles),measurement,setting,value
C=C1CCC2C3(C)CC(C=C(C)C)OC3CCC2(C)C1Cc1c(OC)oc(C)c(C)c1=O (stereo not drawn) [Compound 23],GI50,SNB-75,13.3 µM
same,GI50,BSY-1,10.3 µM
same,GI50,SF-268,8.62 µM
same,GI50,PC-3,10.9 µM
same,GI50,HCC2998,12 µM
same,GI50,SF-295,1.12 µM
same,GI50,RXF-631L,10.2 µM
same,GI50,KM-12,10.3 µM
same,GI50,SK-OV-3,10.8 µM
same,GI50,HT-29,10.3 µM
same,GI50,DU-145,12.3 µM
same,GI50,MKN-A,0.318 µM
same,GI50,MKN1,13.2 µM
same,GI50,LOX-IMVI,0.604 µM
same,GI50,OVCAR-4,7.04 µM
same,GI50,SF-539,5.57 µM
same,GI50,A549,10.4 µM
same,GI50,DMS114,0.0552 µM
same,GI50,OVCAR-3,1.47 µM
same,GI50,MCF-7,1.01 µM
same,GI50,MKN74,4.22 µM
same,GI50,St-4,12.4 µM
same,GI50,NCI-H23,0.228 µM
same,GI50,OVCAR-5,15.4 µM
same,GI50,ACHN,11.8 µM
same,GI50,MKN45,11.1 µM
same,GI50,DMS273,0.265 µM
C=C1CC[C@H]2[C@]3(C)C[C@H](C=C(C)C)O[C@H]3CC[C@]2(C)[C@@H]1Cc1c(OC)oc(C)c(C)c1=O [Compound 24],GI50,SNB-75,13.9 µM
same,GI50,BSY-1,9.59 µM
same,GI50,SF-268,8.09 µM
same,GI50,PC-3,11.8 µM
same,GI50,HCC2998,12.7 µM
same,GI50,SF-295,2.21 µM
same,GI50,RXF-631L,10.9 µM
same,GI50,KM-12,9.49 µM
same,GI50,SK-OV-3,10.7 µM
same,GI50,HT-29,10.1 µM
same,GI50,DU-145,12.2 µM
same,GI50,MKN-A,0.573 µM
same,GI50,MKN1,12.2 µM
same,GI50,LOX-IMVI,0.929 µM
same,GI50,OVCAR-4,6.49 µM
same,GI50,SF-539,7.26 µM
same,GI50,A549,6.88 µM
same,GI50,DMS114,0.189 µM
same,GI50,OVCAR-3,2.68 µM
same,GI50,MCF-7,1.53 µM
same,GI50,MKN74,3.72 µM
same,GI50,St-4,12.2 µM
same,GI50,NCI-H23,0.668 µM
same,GI50,OVCAR-5,14.5 µM
same,GI50,ACHN,11.6 µM
same,GI50,MKN45,9.14 µM
same,GI50,DMS273,0.484 µM
